Patent publication US20130039951A1, “Process Of Preparing A Stabilized And Solubilized Formulation Of Sirolimus Derivatives” (DONG-A PHARM. CO., LTD., priority 2011, published 2013)

What was measured:
[1] = Elution test of tablets in distilled water, paddle method, HPLC; format: physicochemical; details: 900 mL distilled water, 37.5° C., 10 mg everolimus, after 1 hour
Method: The granules of the examples were mixed with pharmaceutical excipients as set forth in Table 1 and then tableted to give a tablet. A direct compressing method was used to prepare a tablet comprising 10 mg of a sirolimus derivative with a hardness of 13 to 15 Kp. However, the formulation prepared from Comparative Example 1 had difficulties in being mixed with the pharmaceutical excipients of Table 1 and also met with an obstacle in a tableting process so that it was subjected to an additional milling process and controlled to have a granularity of 200 to 300 μm before being mixed with the excipients and tableted.
The tablets as obtained were evaluated for their elution property. 900 mL of an elution liquid (distilled water) was put into an elution tester and the granules as obtained in Examples 1 to 6 were taken in an amount corresponding to a dosage of 10 mg of everolimus and subjected to an elution test at 37.5° C. with 50 cycles per a minute by using a paddle method for 2 hours. For each […] taken in accordance with a predetermined schedule, the concentration of everolimus in the elution liquid was quantified by using a high performance liquid chromatography. […]

[2] = Stability: storage in glass vial at 80° C. for 60 hours, drug content by HPLC; format: physicochemical
Method: For Examples 1 to 6 and Comparative Examples 2 and 3, their stability was evaluated and the results were compared. Each of the samples was placed in a glass vial and stored at 80° C. for 60 hours, and then the content of the drug was quantified by using a high performance liquid chromatography.

CO[C@H]1C[C@@H]2CC[C@@H](C)[C@@](O)(O2)C(=O)C(=O)N2CCCC[C@H]2C(=O)O[C@H]([C@H](C)C[C@@H]2CC[C@@H](OCCO)[C@H](OC)C2)CC(=O)[C@H](C)/C=C(\C)[C@@H](O)[C@@H](OC)C(=O)[C@H](C)C[C@H](C)/C=C/C=C/C=C/1C [Comparative Example 2, 40-O hydroxyethyl rapamycin]
elution rate of everolimus [1]: about 37%
content after being left for 60 hours ([2]; 80° C., 60 hours): 23.5%
Content, initial ([2]; before storage): 100.4 wt %
Content, After 60 hours ([2]; stored at 80° C. for 60 hours in glass vial): 23.5 wt %
